# Results reported in paper PMC6403363, “Proteolytic Degradation of reduced Human Beta Defensin 1 generates a Novel Antibiotic Octapeptide” (Scientific Reports, 2019).
# Where a SMILES comes first, the peptide text is derived from it. Where no end group is shown, it is not given here.
# Columns and labels:
# [1] = test system: chymotrypsin; assay: Protease digestion with chymotrypsin, fragments analysed by MALDI-MS; format: in vitro ADME; settings: 2 µg peptide, protease:peptide 1:20, 10 mM sodium phosphate pH 7.4, 90 min
# Description: (§1) 2 µg of oxidized or reduced hBD-1 were digested with pepsin or chymotrypsin at a protease: peptide ratio of 1:20 in HCl-acidified water, pH 3 (pepsin) or 10 mM sodium phosphate, pH 7.4 (chymotrypsin) for 90 min. Human duodenal secretion (pH 6.5–7) was taken during a routine gastroscopy by rinsing the duodenum with saline. Oxidized and reduced hBD-1 were incubated with human duodenal secretion for 30 min at 37 °C. As a control both peptides were incubated with 0.9% NaCl. Peptides were enriched with ZipTip (Millipore), co-crystallized with a-cyano-4-hydroxy cinnamic acid and analyzed with an ultraflex TOF/TOF machine (Bruker, Germany).
# [2] = test system: pepsin; assay: Protease digestion with pepsin, fragments analysed by MALDI-MS; format: in vitro ADME; settings: 2 µg peptide, protease:peptide 1:20, HCl-acidified water pH 3, 90 min
# Description: as §1
# [3] = test system: Bifidobacterium breve; assay: Radial diffusion assay; format: cell-based; settings: 1 or 4 µg peptide per well (Fig. 1D)
# Description: (§2) Antimicrobial radial diffusion assay was modified from reference[17] and performed as described earlier. Briefly, microorganisms were cultivated (anaerobic bacteria with AnaeroGen, Oxoid, UK) for up to 18 hours in liquid TSB medium. Log-phase cultures were washed and diluted to 4 × 10^6 colony forming units in 10 ml agar. Incubation was carried out in 10 ml of 10 mM sodium phosphate, either pH 7.4 or 5.7, containing 0.3 mg/ml of TSB powder and 1% (w/v) low EEO-agarose (AppliChem) with 0 or 1 mM dithiothreitol (DTT, Sigma-Aldrich) under anaerobic or aerobic conditions for three hours. 1 or 4 µg of synthetic, oxidized hBD-1 (Peptide Institute, Japan) and 1 or 4 µg of synthetic peptides (EMC Microcollections, Tuebingen) were filled into small punched wells in a final volume of 4 µl. This concentrated peptide solution dilutes while diffusing into the gel, thereby generating concentration-dependent, round-shaped inhibition zones when killing immobilized microorganisms.
# (§3) An overlay-gel containing 6% (w/v) TSB powder, 1% agarose and 10 mM sodium phosphate buffer without DTT was poured onto the plates and after incubation for up to 48 h at 37 °C the diameter of inhibition zones was measured. Experiments were repeated at least three times; mean + SEM is shown.
# [4] = test system: C. albicans SC5314; assay: Model of oral candidiasis: RHOE infected with C. albicans; format: cell-based, Candida albicans; settings: RHOE preincubated 1 h with 50 µg/ml peptide, infected with C. albicans for 24 h; for fungal load / invasion of the epithelium: histology (Fig. 5A)
# Description: Octapeptides were diluted to 50 µg/ml in PBS, or an equivalent volume of 0.01% acetic acid were applied to the apical side of the RHOEs and incubated for 1 h. C. albicans SC5314 was synchronized as described previously. Yeast cells were washed three times in PBS and 1 × 10^5 CFU were used for infection of pre-treated RHEs. After 24 h RHEs were fixed with Karnovsky’s fixative. Post-fixed samples (1% OsO4, 1 h) were rinsed with distilled water, block-stained with uranyl acetate (2% in distilled water), dehydrated in alcohol (stepwise 30–96%), immersed in propylene oxide and embedded in glycide ether (polymerized 48 h at 60 °C, Serva, Heidelberg). Semi-thin sections were stained with toluidine blue and examined with a Nikon Eclipse 80i light microscope (magnification 1:400). Afterwards, fungal cells were simply coloured in red.
# [5] = test system: E. coli ATCC 25922; assay: Broth microdilution assay (turbidity and CFU); format: cell-based, Escherichia coli; settings: 100 µg/ml peptide, 2 hours at 37 °C, plated on agar (Fig. 2D)
# Description: To differentiate between microbistatic and microbicidal activity we performed a broth microdilution assay. For that, E. coli ATCC25922 bacteria were incubated overnight at 37 °C, 150 rpm. C. albicans ATCC 10231 was grown at 30 °C overnight, 150 rpm in liquid TSB. Cells were collected by centrifugation (2500 rpm, 10 min, 4 °C), washed twice and resuspended in 10 mM sodium phosphate buffer containing 1% (w/v) TSB broth. Required C. albicans cell density was adjusted using a hemocytometer. For bacteria the optical density of OD600nm = 0.1 was determined. Approximately 5 × 10^5 CFU/ml bacteria or fungi were mixed with indicated peptide concentrations (1.25–200 µg/ml) in a final volume of 100 µl in 10 mM sodium phosphate buffer containing 1% (w/v) TSB broth and incubated for 2 hours at 37 °C. After incubation 10 µl per well were plated on LB-/ or YPD-agar plates to determine the CFU/ml. After that 100 µl of 6% TSB (w/v) were added and absorbance was measured at 600 nm (Tecan, Switzerland) and monitored for 18 hours. Growth relative to the positive control in % was plotted against peptide concentration. Experiments were carried out at least three times; mean ± SEM is shown.
# [6] = test system: Candida albicans; assay: Radial diffusion assay; format: cell-based; settings: for antimicrobial activity against C. albicans (diameter of inhibition zones): 4 µg peptide, variants compared with RGKAKCCK (Fig. 1E,F, Fig. 2A)
# Description: as §2, §3
# [7] = test system: Escherichia coli; assay: Radial diffusion assay; format: cell-based; settings: for antimicrobial activity against E. coli (diameter of inhibition zones): 4 µg peptide, variants compared with RGKAKCCK (Fig. 1E,F, Fig. 2A)
# Description: as §2, §3
# [8] = format: in vitro ADME, human; settings: pH 6.5
# Description: as §1
# [9] = test system: trypsin; settings: cited from earlier work
# Source text: Due to their ancient evolutionary origin and the strong demand for novel antimicrobial strategies, AMPs have been considered as potential antibiotic drug candidates. Mainly because they target “Achilles heels” of microorganisms, only few resistance mechanisms have been evolved over long time[14],[15]. Still, large-scale chemical synthesis of defensins containing three native disulphide-bridges has been a challenge and rendered the production expensive. Accordingly, the production of smaller, but yet antibiotic, fragments of defensins without disulphide bridges is a promising option. We have sh ...
# [10] = test system: antibiotic-resistant bacteria; assay: Radial diffusion assay, drug-resistant clinical isolates overall; format: cell-based; settings: 4 µg peptide, direct comparison of the four peptides (Fig. 2B)
# Description: as §2, §3
# [11] = test system: C. albicans ATCC 10231; assay: Flow cytometric assay, propidium iodide uptake; format: cell-based, Candida albicans; settings: 100 µg/ml peptide, 1 h, flow cytometry (Fig. 3A)
# Description: (§4) Approximately 1.5 × 10^6 CFU log-phase bacteria or overnight cultured C. albicans ATCC 10231 were used in a final volume of 100 µl TSB (1:6 diluted H2O). We added peptides in concentrations 50 and 100 µg/ml in a final volume of 10 µl and incubated theses suspensions for 1 h at 37 °C. Subsequently 2 µl of membrane potential sensitive dye DiBAC4(3) [bis-[1,3-dibutylbarituric acid)trimethine oxonol] (Thermo Scientific, USA) (50 µg/ml) or Propidium Iodide (Thermo Scientific, USA) (50 µg/ml) were added and incubated for 10 min at room temperature. Then samples were centrifuged (5 min, 7000 rpm, RT) and re-suspended in 300 µl PBS. The percentage of fluorescent positive cells was determined using Canto II flow cytometer (BD Bioscience) with DIVA software (BD Bioscience) as described earlier. Experiments were repeated at least three times and mean +/− SEM is shown.
# [12] = test system: E. coli ATCC 25922; assay: Flow cytometric assay, propidium iodide uptake; format: cell-based, Escherichia coli; settings: 100 µg/ml peptide, 1 h, flow cytometry, at least three experiments (Fig. 3A)
# Description: as §4
# [13] = test system: selected commensal and pathogenic microorganisms; assay: Radial diffusion assay, semi-quantitative evaluation on a molar base; format: cell-based; settings: 4 µg reduced hBD-1 equivalent to 254 µM, 1 µg octapeptide equivalent to 280 µM in the RDA
# Description: as §2, §3
# [14] = test system: Pseudomonas aeruginosa; assay: Radial diffusion assay; format: cell-based; settings: P. aeruginosa ATCC type strain (Figs 1D, 2A)
# Description: as §2, §3
# [15] = test system: Bifidobacterium adolescentis; assay: Radial diffusion assay; format: cell-based; settings: 10 mM sodium phosphate, 1 or 4 µg peptide per well, at least three experiments (Fig. 1D)
# Description: as §2, §3
# [16] = test system: Streptococcus salivarius ssp. thermophilus; assay: Radial diffusion assay; format: cell-based; settings: 1 or 4 µg peptide per well, at least three experiments (Fig. 1D)
# Description: as §2, §3
# [17] = 1 or 4 µg peptide per well, at least three experiments (Fig. 1D)
compound,measurement,setting,value
"DHYNCVSSGGQCLYSACPIFTKIQGTCYRGKAKCCK (disulfide (positions not given here)) [oxidized hBD-1, host-defense peptide human beta-defensin 1 with three disulphide bridges]",proteolytic susceptibility towards chymotrypsin,[1],protease resistant
same,proteolytic susceptibility towards pepsin,[2],protease resistant
same,antimicrobial activity (inhibition zones),[3],no inhibition zones
CC(=O)N[C@@H](CCCNC(=N)N)C(=O)NCC(=O)N[C@@H](CCCCN)C(=O)N[C@@H](C)C(=O)N[C@@H](CCCCN)C(=O)N[C@@H](CS)C(=O)N[C@@H](CS)C(=O)N[C@@H](CCCCN)C(N)=O [Ac-RGKAKCCK-NH2] (Ac-RGKAKCCK-NH2),fungal load / invasion of the epithelium,[4],invaded the whole epithelium
same,decrease in CFU of E. coli compared to untreated controls,[5],more than 100 fold
AGKAKCCK [variant lacking Arg1],antimicrobial activity against C. albicans (diameter of inhibition zones),[6],completely inactive
same,antimicrobial activity against E. coli (diameter of inhibition zones),[7],completely inactive
AGAAKCCK [variant lacking Arg1 and Lys3],antimicrobial activity against C. albicans (diameter of inhibition zones),[6],completely inactive
same,antimicrobial activity against E. coli (diameter of inhibition zones),[7],completely inactive
"DHYNCVSSGGQCLYSACPIFTKIQGTCYRGKAKCCK [reduced hBD-1, hBD-1 after reduction of its three disulphide bridges, a linear peptide]",antimicrobial activity (inhibition zones),[3],inhibited its growth
same,digestion by human duodenal secretion (generation of fragment m/z 893.5),[8],generated a fragment having an m/z of 893.5
same,degradation by the intestinal protease trypsin,[9],can be degraded
C[C@H](NC(=O)[C@H](CCCCN)NC(=O)CNC(=O)[C@@H](N)CCCNC(=N)N)C(=O)N[C@@H](CCCCN)C(=O)N[C@@H](CS)C(=O)N[C@@H](CS)C(=O)N[C@@H](CCCCN)C(=O)O [RGKAKCCK] (H-RGKAKCCK-OH),epithelial damage,[4]; blinded scale 0 to 5 (Fig. 5B),ameliorated epithelial damage
same,fungal load / invasion of the epithelium,[4],convincingly reduced the fungal load
same,spectrum against the tested antibiotic-resistant bacteria,[10],inhibited growth of the most tested antibiotic-resistant bacteria
same,PI uptake of C. albicans,[11],up to 60%
same,PI uptake / bacterial killing (cell death) of E. coli,[12],~100%
same,activity on a molar base compared with the full length-peptide,[13],less potent
same,antimicrobial activity (diameter of inhibition zones),[6]; [17],convincing activity
same,antimicrobial activity (diameter of inhibition zones),[14],neglectable antibiotic activity
same,antimicrobial activity (diameter of inhibition zones),[15],convincing activity
same,antimicrobial activity (diameter of inhibition zones),[16],convincing activity
same,antimicrobial activity (diameter of inhibition zones),[7]; [17],convincing activity
same,antimicrobial activity (inhibition zones),[3],no inhibition zones
same,decrease in CFU of E. coli compared to untreated controls,[5],more than 100 fold
RGKAKAAK [octapeptide with both cysteines replaced],antimicrobial activity against C. albicans (diameter of inhibition zones),[6],completely abolished activity
same,antimicrobial activity against E. coli (diameter of inhibition zones),[7],completely abolished activity
RGKAKACK [octapeptide with Cys6 replaced by alanine],antimicrobial activity against C. albicans (diameter of inhibition zones),[6],strongly decreased activity
same,antimicrobial activity against E. coli (diameter of inhibition zones),[7],increased
RGKAKCAK [octapeptide with Cys7 replaced by alanine],antimicrobial activity against C. albicans (diameter of inhibition zones),[6],strongly decreased activity
same,antimicrobial activity against E. coli (diameter of inhibition zones),[7],increased
